Assay results taken from article PMC2928223 (Journal of molecular biology, 2009).

Target: T1, CgFMNAT (Nakaseomyces glabratus, UniProt Q6FNA9)
T1 sequence (Q6FNA9 1-304): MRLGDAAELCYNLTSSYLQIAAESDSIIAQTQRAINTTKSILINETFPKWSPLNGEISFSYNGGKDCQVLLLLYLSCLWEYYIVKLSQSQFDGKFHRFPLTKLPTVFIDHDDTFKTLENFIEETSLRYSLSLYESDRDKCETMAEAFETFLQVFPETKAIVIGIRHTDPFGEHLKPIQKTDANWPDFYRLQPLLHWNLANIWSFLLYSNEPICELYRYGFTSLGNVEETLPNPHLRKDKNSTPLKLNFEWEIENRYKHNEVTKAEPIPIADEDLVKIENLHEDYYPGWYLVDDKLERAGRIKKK

Structure (SMILES): O=P(O)(O)OP(=O)(O)O [pyrophosphate]
- X-ray crystal structure of product ternary complex (1.35 Å): the densities for both products FAD and pyrophosphate (PPi) are well defined
